Measurements reported in patent publication US7939546B2, “Quinoline derivatives for modulating DNA methylation” (SuperGen, Inc., priority 2007, dated 2011).
Where a name gives a salt, the structure may show the parent alone. Read-outs that look alike come from different tables or passages of the source.

Key:
[1] = target: DNMT1 (Homo sapiens, UniProt P26358); test: Selective depletion of DNMT1 by Western blot in treated HCT116 cells; format: cell-based; design: Protein extracts (equivalent to 100 μg) were isolated from HCT116 cells; endogenous in cells; host or cells: HCT116; conditions: for % DNMT1 protein level remaining at 5 µM: HCT-116, 5 μM; for % DNMT1 protein level remaining at 10 µM: HCT-116, 10 μM; for % DNMT1 protein level remaining at 100 µM: HCT-116, 100 μM
Chain of DNMT1 (P26358 whole entry): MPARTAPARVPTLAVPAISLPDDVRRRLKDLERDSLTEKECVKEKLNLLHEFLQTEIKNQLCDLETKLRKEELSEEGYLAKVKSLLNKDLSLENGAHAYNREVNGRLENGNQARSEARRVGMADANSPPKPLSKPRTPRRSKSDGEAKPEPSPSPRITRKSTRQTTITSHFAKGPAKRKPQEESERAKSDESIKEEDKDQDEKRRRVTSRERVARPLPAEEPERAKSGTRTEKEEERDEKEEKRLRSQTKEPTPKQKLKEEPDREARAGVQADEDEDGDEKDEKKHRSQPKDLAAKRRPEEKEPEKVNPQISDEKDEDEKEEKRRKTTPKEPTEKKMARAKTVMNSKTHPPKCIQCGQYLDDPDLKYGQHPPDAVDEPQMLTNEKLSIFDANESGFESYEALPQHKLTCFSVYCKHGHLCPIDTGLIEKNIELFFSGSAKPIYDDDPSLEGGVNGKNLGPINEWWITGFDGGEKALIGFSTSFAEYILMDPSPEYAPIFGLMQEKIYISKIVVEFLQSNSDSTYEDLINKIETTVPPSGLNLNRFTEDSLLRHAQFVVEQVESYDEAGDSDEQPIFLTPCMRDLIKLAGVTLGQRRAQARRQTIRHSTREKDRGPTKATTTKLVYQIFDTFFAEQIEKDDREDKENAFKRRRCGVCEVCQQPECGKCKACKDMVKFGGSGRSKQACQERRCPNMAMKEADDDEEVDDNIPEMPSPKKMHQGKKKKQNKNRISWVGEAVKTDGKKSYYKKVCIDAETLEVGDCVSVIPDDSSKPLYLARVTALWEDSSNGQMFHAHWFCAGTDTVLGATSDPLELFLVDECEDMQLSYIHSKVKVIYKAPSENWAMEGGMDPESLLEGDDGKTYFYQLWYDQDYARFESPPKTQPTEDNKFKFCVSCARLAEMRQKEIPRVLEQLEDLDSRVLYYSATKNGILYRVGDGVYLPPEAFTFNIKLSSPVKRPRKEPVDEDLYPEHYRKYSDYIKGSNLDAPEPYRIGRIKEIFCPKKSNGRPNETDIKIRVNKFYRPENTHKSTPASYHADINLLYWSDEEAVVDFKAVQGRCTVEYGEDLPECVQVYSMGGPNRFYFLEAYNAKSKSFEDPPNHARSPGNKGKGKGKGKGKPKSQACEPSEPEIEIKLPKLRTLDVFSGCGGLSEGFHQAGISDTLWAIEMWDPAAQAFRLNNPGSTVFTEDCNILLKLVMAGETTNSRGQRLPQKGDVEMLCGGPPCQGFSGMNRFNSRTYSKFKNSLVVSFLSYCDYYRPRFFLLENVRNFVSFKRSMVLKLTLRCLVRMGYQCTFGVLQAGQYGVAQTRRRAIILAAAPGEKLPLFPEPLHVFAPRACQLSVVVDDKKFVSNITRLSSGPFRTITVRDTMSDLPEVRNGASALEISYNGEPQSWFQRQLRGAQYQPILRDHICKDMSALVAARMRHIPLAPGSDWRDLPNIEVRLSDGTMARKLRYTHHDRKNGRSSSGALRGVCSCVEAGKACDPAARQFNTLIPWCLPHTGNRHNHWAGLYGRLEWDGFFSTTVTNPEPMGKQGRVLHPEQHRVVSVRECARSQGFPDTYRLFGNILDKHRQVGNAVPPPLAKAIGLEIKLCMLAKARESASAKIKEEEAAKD
Source text: Biol. 2005, 11, 4727-41.]. For DNMT1, commercially available antibodies from Santa Cruz or New England Biolabs were used.

[2] = system: CMV-EE210 cell line; test: Toxicity (TD50, cell viability) reported with the GFP assay; conditions: for TD50: Dose at which cells are >50% viable
Experimental: (§1) The demethylating activity of non-bis-quaternary 4-anilinoquinolines were tested in a cell-based GFP (green fluorescent protein) assay. This assay has a GFP gene regulated by the CMV promoter and is sensitive to the methylation of CpG sites within the promoter. A decrease in methylation resulting from exposure to a methylation inhibitor leads to GFP expression and is readily scored. Specifically, the CMV-EE210 cell line containing the epigenetically silenced GFP transgene was used to assay for reactivation of GFP expression by flow cytometry. CMV-EE210 was made by transfecting NIH 3T3 cells with the pTR-UF/UF1/UF2 plasmid (Zolotuhin et al., 1996), which is comprised of pBS(+) (Stratagene, Inc.) containing a cytomegalovirus (CMV) promoter driving a humanized GFP gene adapted for expression in mammalian cells. After transfection, high-level GFP expressing cells were initially selected by FACS analysis and sorting using a MoFlo cytometer (Cytomation, Inc.). […] To screen for reactivation of CMV-EE210, decitabine (at […]) or a test compound (at a concentration of 30-50 μM) was added to complete medium (phenol red free DMEM (Gibco, Life Technologies) supplemented with 10% fetal bovine serum (Hyclone)). Cells were then seeded to 30% confluence (˜5000 cell/well) in 96 well plate containing the test compounds and grown for three days in at 37° C. in 5% CO2. The plates were examined under a fluorescent microscope using a 450-490 excitation filter (13 filter cube, Leica, Deerfield Ill.). Wells were scored g1 positive if 10% of viable cells express GFP, g2 positive if 30% of viable cells express GFP and g3 if greater than 75% of the viable cells express GFP. GFP IC 50 is the concentration of an inhibitor that (like an IC50) is the dose at which the GFP expression level goes from g3 to g1/2.

[3] = system: CMV-EE210 cell line containing the epigenetically silenced GFP transgene; test: Cell-based GFP assay for demethylating activity (reactivation of silenced GFP transgene); conditions: for IC50: read-out: GFP IC50; for GFP Expression Level: test compound 30-50 μM, decitabine at 11 M (so in the source), three days
Experimental: as §1

[4] = dose at which the GFP expression level goes from g3 to g1/2

Row | SMILES | % DNMT1 protein level remaining at 5 µM [1] | % DNMT1 protein level remaining at 10 µM [1] | % DNMT1 protein level remaining at 100 µM [1] | melting point | TD50 [2] | toxicity relative to decitabine [2] | IC50 [3] | IC50 [3, 4] | % DNMT1 Level ([1]; 5 μM) | % DNMT1 Level ([1]; 10 μM) | GFP Expression Level [3] | % DNMT1 Level ([1]; 100 μM)
1 | C[n+]1ccc(Nc2cccc(NC(=O)c3ccc(Nc4ccnc5ccc(N)cc45)cc3)c2)cc1 [Cpd. K, 4-[3-({4-[(6-ammonio-4-quinolinyl)amino]benzoyl}amino)anilino]-1-methylpyridinium dichloride] | 98% | 92% | 37% | 270 to 274 °C | 12.5 µM | – | – | – | – | – | – | –
2 | CN(C)c1ccc2nccc(Nc3ccc(C(=O)Nc4ccc(Nc5cc[n+](C)cc5)cc4)cc3)c2c1 [Cpd. O, 4-[4-({4-[(6-dimethylammonio-4-quinolinyl)amino]benzoyl}amino)-anilino]-1-methylpyridinium dichloride] | 84% | 150% | 142% | 242 to 246 °C | 50 µM | less than one-half as toxic as decitabine | 12.5 µM | – | – | – | – | –
3 | Nc1ncn([C@H]2C[C@H](O)[C@@H](CO)O2)c(=O)n1 [Decitabine, 5-aza-2′-deoxycytidine, reference compound] | 0 to 5% | – | – | – | 12.5 µM | – | – | 0.39 µM | – | – | – | –
4 | Cc1cc(Nc2ccc(NC(=O)c3ccc(Nc4ccnc5ccccc45)cc3)cc2)nc(N)n1 [Cpd. E, N-(4-(2-amino-6-methylpyrimidin-4-ylamino)phenyl)-4-(quinolin-4-ylamino)benzamide hydrochloride] | – | – | – | – | 25 µM | – | 12 µM | – | 11% | 0.5% | g1 (g1 positive if 10% of viable cells express GFP) | –
5 | C[n+]1ccc(Nc2cccc(C(=O)Nc3ccc(Nc4ccnc5ccccc45)cc3)c2)cc1.Cl.[Cl-] [Cpd. C, 4-[4-({3-[(1-methyl-4-pyridiniumyl)amino]benzoyl}amino)anilino]quinolinium dichloride] | – | – | – | – | 25 µM | – | – | 50 µM | 31% | 33% | g1 (g1 positive if 10% of viable cells express GFP) | 34%
6 | CN(C)c1ccc2c(Nc3ccc(C(=O)Nc4cccc(Nc5cc[n+](C)cc5)c4)cc3)ccnc2c1.Cl.[Cl-] [Cpd. Z, 7-(dimethylamino)-4-[4-({3-[(1-methyl-4-pyridiniumyl)amino]anilino}carbonyl)anilino]quinolinium dichloride] | – | – | – | – | 25 µM | less than one-half as toxic as decitabine | – | 1 µM | 83% | 115% | – | 87%
7 | Cc1cc(Nc2ccc(NC(=O)c3ccc(Nc4ccnc5cc(N(C)C)ccc45)cc3)cc2)nc(N)n1 [Cpd. BB, N-[4-(2-amino-6-methylpyrimidin-4-ylamino)phenyl]-4-(7-(dimethylamino)quinolin-4-ylamino)benzamide hydrochloride] | 106% | 76% | 32% | – | 25 µM | less than one-half as toxic as decitabine | 100 µM | – | – | – | – | –
8 | C[n+]1ccc(Nc2ccc(C(=O)Nc3ccc(Nc4ccnc5cc([N+](=O)[O-])ccc45)cc3)cc2)cc1.Cl.[Cl-] [Cpd. U, 4-[4-({4-[(1-methyl-4-pyridiniumyl)amino]benzoyl}amino)anilino]-7-nitroquinolinium dichloride] | – | – | – | – | 25 µM | – | – | – | 97% | 53% | – | 32%
9 | C[n+]1ccc(Nc2cccc(C(=O)Nc3ccc(Nc4ccnc5ccc(N)cc45)cc3)c2)cc1 [Cpd. M, 6-amino-4-[4-({3-[(1-methyl-4-pyridiniumyl)amino]benzoyl}amino)anilino]quinolinium dichloride] | 30% | 40% | 43% | > 310 °C | 25 µM | – | – | – | – | – | – | –
10 | C[n+]1ccc(Nc2cccc(NC(=O)c3ccc(Nc4ccnc5cc(N)ccc45)cc3)c2)cc1 [Cpd. V, 4-[3-({4-[(7-ammonio-4-quinolinyl)amino]benzoyl}amino)anilino]-1-methylpyridinium dichloride] | 112% | 110% | 124% | 281 to 285 °C | 12.5 µM | – | – | – | – | – | – | –
11 | C[n+]1ccc(Nc2ccc(C(=O)Nc3ccc(Nc4ccnc5ccc(N)cc45)cc3)cc2)cc1 [Cpd. N, 4-[4-({4-[(6-amino-4-quinolinyl)amino]anilino}carbonyl)anilino]-1-methylpyridinium chloride] | 160% | 152% | 130% | – | 50 µM | – | 100 µM | – | – | – | g2 (g2 positive if 30% of viable cells express GFP) | –
12 | C[n+]1ccc(Nc2cccc(C(=O)Nc3ccc(Nc4ccnc5ccc([N+](=O)[O-])cc45)cc3)c2)cc1 [Cpd. J, 4-[4-({3-[(1-methyl-4-pyridiniumyl)amino]benzoyl}amino)anilino]-6-nitroquinolinium dichloride] | 101% | 89% | 59% | > 300 °C | 12.5 µM | – | – | – | – | – | – | –
13 | C[n+]1ccc(Nc2ccc(NC(=O)c3ccc(Nc4ccnc5ccccc45)cc3)cc2)cc1 [Cpd. B, 1-methyl-4-(4-(4-(quinolin-4-ylamino)benzamido)phenylamino)pyridinium chloride hydrochloride] | 102% | 98% | 81% | – | 25 µM | – | – | – | – | – | – | –
14 | C[n+]1ccc(Nc2cccc(C(=O)Nc3ccc(Nc4ccnc5cc([N+](=O)[O-])ccc45)cc3)c2)cc1.Cl.[Cl-] [Cpd. T, 4-[4-({3-[(1-methyl-4-pyridiniumyl)amino]benzoyl}amino)anilino]-7-nitroquinolinium dichloride] | – | – | – | – | 25 µM | – | – | – | 64% | 69% | – | 85%
15 | C[n+]1ccc(Nc2ccc(C(=O)Nc3ccc(Nc4ccnc5ccccc45)cc3)cc2)cc1.Cl.[Cl-] [Cpd. D, 4-[4-({4-[(1-methyl-4-pyridiniumyl)amino]benzoyl}amino)anilino]quinolinium dichloride] | – | – | – | – | 12.5 µM | – | – | – | 131% | 103% | g1 (g1 positive if 10% of viable cells express GFP) | 74%
16 | CN(C)c1ccc2c(Nc3ccc(C(=O)Nc4ccc(Nc5cc[n+](C)cc5)cc4)cc3)ccnc2c1.Cl.[Cl-] [Cpd. AA] | – | – | – | – | 25 µM | – | – | – | 136% | 101% | g2 (g2 positive if 30% of viable cells express GFP) | 32%
17 | C[n+]1ccc(Nc2cccc(NC(=O)c3ccc(Nc4ccnc5ccc([N+](=O)[O-])cc45)cc3)c2)cc1 [Cpd. F, 1-methyl-4-(3-{[4-(6-nitro-4-quinolinylamino)benzoyl]amino}anilino)pyridinium chloride] | 145% | 210% | 155% | – | 25 µM | – | – | – | – | – | – | –
18 | C[n+]1ccc(Nc2ccc(C(=O)Nc3ccc(Nc4ccnc5cc(N)ccc45)cc3)cc2)cc1 [Cpd. Y, 4-[4-({4-[(7-amino-4-quinolinyl)amino]anilino}carbonyl)anilino]-1-methylpyridinium chloride] | 93% | 63% | 77% | – | 25 µM | – | 100 µM | – | – | – | g1 (g1 positive if 10% of viable cells express GFP) | –
19 | C[n+]1ccc(Nc2cccc(C(=O)Nc3ccc(Nc4ccnc5cc(N)ccc45)cc3)c2)cc1.Cl.[Cl-] [Cpd. X, 7-amino-4-[4-({3-[(1-methyl-4-pyridiniumyl)amino]benzoyl}amino)anilino]quinolinium dichloride] | – | – | – | – | 25 µM | – | – | 50 µM | 49% | 98% | g2 (g2 positive if 30% of viable cells express GFP) | 73%
